Test results: patent US6867200B1, “(Hetero)aryl-bicyclic heteroaryl derivatives, their preparation and their use as protease inhibitors” (Axys Pharmaceuticals, Inc., priority 1998, dated 2005)

Experiments:
human Urokinase = molecular target: T1, human Urokinase (Homo sapiens, UniProt P00749); experiment: Urokinase (uPA) inhibition, chromogenic substrate hydrolysis, Ki app.; assay type: biochemical
T1 construct: purchased American Diagnostica, CT, USA

human Factor Xa = molecular target: T2, human Factor Xa (Homo sapiens, UniProt P00742); experiment: Factor Xa inhibition, chromogenic substrate hydrolysis, Ki app.; assay type: biochemical; details: read-out: FXa Ki
T2 construct: purified human Factor Xa; purchased Haematologic Technologies, VT, USA
T2 sequence (P00742 235-488 limits assumed): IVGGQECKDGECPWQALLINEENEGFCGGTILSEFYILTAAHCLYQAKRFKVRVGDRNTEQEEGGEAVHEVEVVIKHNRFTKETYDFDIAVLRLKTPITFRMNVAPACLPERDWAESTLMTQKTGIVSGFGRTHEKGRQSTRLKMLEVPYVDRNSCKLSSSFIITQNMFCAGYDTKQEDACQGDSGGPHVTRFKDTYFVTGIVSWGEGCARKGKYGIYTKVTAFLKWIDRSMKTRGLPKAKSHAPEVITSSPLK
T2 sequence (P00742 41-179 partner limits assumed): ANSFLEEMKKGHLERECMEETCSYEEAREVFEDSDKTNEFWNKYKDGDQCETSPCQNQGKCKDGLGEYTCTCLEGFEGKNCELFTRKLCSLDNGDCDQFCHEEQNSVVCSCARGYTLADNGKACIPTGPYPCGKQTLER

Ki (human Urokinase) [nM] | Ki (human Factor Xa) [nM] | Compound
260 | 0.618 | N=C(N)c1ccc2[nH]c(-c3cc(CCC(=O)O)cc(Br)c3O)c(Cc3ccccc3)c2c1 [Ex. 802, 3-[3-(3-Benzyl-5-carbamimidoyl-1H-indol-2-yl)-5-bromo-4-hydroxy-phenyl]-propionic acid]
65 | 298 | Cc1cc(-c2ccccc2)c(O)c(-c2cc3cc(C(=N)N)ccc3[nH]2)c1 [compound 820]
4 | 5400 | N=C(N)c1cc2cc(-c3cc(CC(=O)N4CCS(=O)(=O)CC4)cc(-c4ccccc4)c3O)[nH]c2cc1Cl [compound 860]
 | 460 | N=C(N)c1ccc2nc(-c3ccc(OCC(=O)NCc4cccc5ccccc45)cc3O)[nH]c2c1 [compound 258, 2-[4-(6-Carbamimidoyl-1H-benzoimidazol-2-yl)-3-hydroxy-phenoxy]-N-naphthalen-1-ylmethyl-acetamide]
